Results taken from US20220339249A1, “COMPOSITE BIOMARKER FOR CANCER THERAPY” (Bristol-Myers Squibb Company, priority 2019, published 2022).

Tests used:
TDO2 = TDO2 (Homo sapiens, UniProt P48775); settings: cited from earlier work
tumors = test: Response to nivolumab monotherapy (CheckMate trials) by TDO2 expression; assay type: in vivo, human; settings: immuno-oncology naïve patients
Experimental: TDO2 expression was determined by median. All tumors are […] from the biomarker cohort (Clinical Trial No. NCT02658890). Nivolumab monotherapy data is from CheckMate trials. NE=not evaluable; PD=progressive disease; PR=partial response; SCCHN=squamous cell carcinoma of the head and neck; SD=stable disease; TDO2=tryptophan 2,3-dioxygenase 2.
Therefore, the association between TDO2 expression and clinical response was evaluated. High or low TDO2 expression levels were determined by the median. Based on the objective response rate, 26% of patients with low TDO2 expression responded to treatment while only 13% of patients with high TDO2 expression responded to treatment (TABLE 4).

[1] = monotherapy, every two weeks; MTD not reached; cited from earlier work

TDO2, sequence (P48775 whole entry): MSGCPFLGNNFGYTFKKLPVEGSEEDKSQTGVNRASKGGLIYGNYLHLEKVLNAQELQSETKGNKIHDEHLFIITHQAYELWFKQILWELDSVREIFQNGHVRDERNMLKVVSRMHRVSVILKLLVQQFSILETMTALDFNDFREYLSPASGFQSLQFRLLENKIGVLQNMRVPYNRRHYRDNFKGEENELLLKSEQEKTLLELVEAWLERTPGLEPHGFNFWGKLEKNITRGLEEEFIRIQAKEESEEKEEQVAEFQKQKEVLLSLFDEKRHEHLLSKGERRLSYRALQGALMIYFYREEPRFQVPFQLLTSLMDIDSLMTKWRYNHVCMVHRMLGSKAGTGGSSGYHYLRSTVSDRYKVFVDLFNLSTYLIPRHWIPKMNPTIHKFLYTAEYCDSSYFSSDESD

Row | Compound | inhibition of TDO2 enzymatic activity (TDO2) | association between TDO2 expression and response (tumors) | maximum tolerated dose (MTD) [1]
1 | C[C@@H](C(=O)Nc1ccc(Cl)cc1)[C@H]1CC[C@@H](c2ccnc3ccc(F)cc32)CC1 [linrodostat, (2R)—N-(4-chlorophenyl)-2-(cis-4-(6-fluoroquinolin-4-yl)cyclohexyl)propanamide] | not TDO2 enzymatic activity | – | –
2 | nivolumab | – | No association | > 10 mg/kg
